# Measurements: paper PMC6470885 (Molecules, 2019)
# Several values for one entry are separate records, joined by “and”; a condition that tells them apart may be missing. Identical values can stand only once. Non-standard residues stand in square brackets, D forms with d. Residues, ends and D or L forms follow the SMILES beside them. *: point of attachment. Palmitoyl = CCCCCCCCCCCCCCCC(=O)*; PEG4 = NCCOCCOCCOCCOCCC(=O)O
# Experiments:
# [1] = tested on: MT-2 cells; test: Cytotoxicity, CCK8 assay, MT-2 cells
# Description: (§1) A peptide at graded concentration was incubated with 2 × 10^5/mL cells at 37 °C for 3 days before adding 10 μL of CCK8 reagent (Sigma-Aldrich). After another round of incubation at 37 °C for 2 h, A450 was measured with the Multi-Detection Microplate Reader. Cell viability was calculated by […].
# [2] = tested on: HIV-1 T20-resistant strains; conditions: ratio of IC50s
# Description: (§3) Inhibitory activities of peptides on infection by HIV-1 X4 strain IIIB, R5 strain Bal, and T20-, T2635-, HP23-resistant strains were determined as previously described [42]. For each well of a 96-well plate, 50 μL of a peptide were mixed with 50 μL of 100 × TCID50 (50% tissue culture infective doses) of HIV-1 live virus and incubated at 37 °C for 30 min. Afterwards, 2 × 10^4 MT-2 (for X4 virus) or CEMx174 5.25 M7 cells (for R5 virus) were added. After overnight culture, the supernatant was replaced with fresh RPMI-1640 medium containing 10% fetal bovine serum (FBS). After further culture at 37 °C for three days, 50 μL of the culture medium were collected and mixed with equal volume of 5% (v/v) Triton X-100. The p24 antigen, which represents HIV-1 quantity, was detected by ELISA. Briefly, the collected mixtures were added to a plate coated with anti-HIV Immune Globulin (HIVIG) from the NIH AIDS Reagent Program. Anti-p24 mAb 183, rabbit anti-mouse IgG-HRP (Dako, Glostrup, Denmark) and substrate 3,3,5,5-TMB (Sigma-Aldrich, New York, NY) were added and washed away sequentially. The absorbance at 450 nm (A450) was determined by a Multi-Detection Microplate Reader (Ultra 384, Tecan, Tokyo, Japan). IC50s were calculated using Calcusyn software (Biosoft, Ferguson, MO), and the lines of best fit were drawn using GraphPad Prism 8 software (La Jolla, CA).
# [3] = tested on: HIV-1IIIB; test: Ex vivo anti-HIV-1 activity of sera of peptide-treated mice; format: in vivo; conditions: ICR mice, 5 mg/kg i.p.; serum tested against HIV-1IIIB
# Description: (§2) Evaluation of ex vivo anti-HIV-1 activity of a peptide in a mouse model was performed as described recently. This mouse experiment was conducted under ethical guidelines and approved by the Institutional Laboratory Animal Care and Use Committee at Fudan University (20160927-2). ICR mice used for this study were bred at the Department of Laboratory Animal Science of Fudan University. Briefly, 5 mg/kg of a peptide were intraperitoneally (i.p.) injected into four female ICR mice (8 weeks). […] Anti-HIV-1 activities of the mouse serum samples were determined in the same way as described above. The highest dilution-fold of the serum causing 50% inhibition of HIV-1IIIB infection (IC50) was calculated.
# [4] = tested on: HIV-1 mutants resistant to T20, T2635, or HP23; format: cell-based; conditions: ratio of IC50s
# Description: (§4) For each well of a 96-well plate, 50 μL of a peptide were mixed with 50 μL of 100 × TCID50 (50% tissue culture infective doses) of HIV-1 live virus and incubated at 37 °C for 30 min. Afterwards, 2 × 10^4 MT-2 (for X4 virus) or CEMx174 5.25 M7 cells (for R5 virus) were added. After overnight culture, the supernatant was replaced with fresh RPMI-1640 medium containing 10% fetal bovine serum (FBS). After further culture at 37 °C for three days, 50 μL of the culture medium were collected and mixed with equal volume of 5% (v/v) Triton X-100. The p24 antigen, which represents HIV-1 quantity, was detected by ELISA. Briefly, the collected mixtures were added to a plate coated with anti-HIV Immune Globulin (HIVIG) from the NIH AIDS Reagent Program. Anti-p24 mAb 183, rabbit anti-mouse IgG-HRP (Dako, Glostrup, Denmark) and substrate 3,3,5,5-TMB (Sigma-Aldrich, New York, NY) were added and washed away sequentially. The absorbance at 450 nm (A450) was determined by a Multi-Detection Microplate Reader (Ultra 384, Tecan, Tokyo, Japan). IC50s were calculated using Calcusyn software (Biosoft, Ferguson, MO), and the lines of best fit were drawn using GraphPad Prism 8 software (La Jolla, CA).
# [5] = tested on: cell-cell fusion between H9/IIIB cells and MT-2 cells; test: HIV-1-mediated cell-cell fusion (dye transfer assay); format: cell-based; conditions: ratio of IC50s
# Description: A dye transfer assay was performed to detect HIV-1 Env-mediated cell-cell fusion as described previously. Briefly, for each well of a 96-well plate, 2 × 10^3 H9/IIIB cells labeled with the fluorescent reagent Calcein AM (Molecular Probes, Inc., Eugene, Oregon) were incubated with a CHR-peptide at 37 °C for 30 min. Afterwards, 10^4 MT-2 cells were added and incubated at 37 °C for 2 h. The fused and unfused Calcein-labeled H9/IIIB cells were counted under an inverted fluorescence microscope (Zeiss, Oberkochen, Germany). The IC50 values were calculated by using the Calcusyn computer program (Biosoft, Ferguson, MO).
# [6] = tested on: HIV-1IIIB (X4 virus); test: Virus wash and nonwash assay; format: cell-based; conditions: HIV-1IIIB incubated with peptide 4 °C 30 min, unbound peptide washed away, then MT-2 cells
# Description: To determine whether a peptide binds with the viral particle in order to execute its anti-HIV-1 activity, virus wash and nonwash assays were performed as previously described. Briefly, HIV-1IIIB (50 × TCID50) were incubated with a peptide at 4 °C for 30 min, followed by washes of the pretreated viral particles to remove the unbound peptide (control: without washes) before being added to 2 × 10^4 MT-2 cells. After culture at 37 °C overnight, the supernatant was replaced by fresh RPMI-1640 medium containing 10% FBS. The inhibitory activity of the virus-bound peptide in the wash group and free peptide in the nonwash group was determined as described above.
# [7] = tested on: HIV-1Bal (R5 virus); format: cell-based; conditions: ratio of IC50s
# Description: as §3
# [8] = tested on: M7 cells; test: Cytotoxicity, CCK8 assay, M7 cells
# Description: as §1
# [9] = tested on: HIV-1 HP23-resistant strains; conditions: ratio of IC50s
# Description: as §4
# [10] = Serum half-life and pharmacokinetic parameters in mice
# Description: as §2
# [11] = tested on: HIV-1 T2635-resistant strains; conditions: ratio of IC50s
# Description: as §4
# [12] = tested on: HIV-1IIIB (X4 virus); format: cell-based; conditions: ratio of IC50s
# Description: as §3
# [13] = concentrations as high as 8 μM, 3 days, 37 °C, CCK8
# [14] = Mice (i.p., n = 3), 5 mg/kg, concentration estimated from serum anti-HIV-1 activity, MODFIT
structure (smiles),measurement,setting,value
CCCCCCCCCCCCCCCC(=O)NCCCC[C@H](NC(=O)CCOCCOCCOCCOCCNC(=O)CNC(=O)[C@H](CO)NC(=O)CNC(=O)[C@H](CC(C)C)NC(=O)[C@H](CC(=O)O)NC(=O)[C@@H](NC(=O)[C@H](CCC(N)=O)NC(=O)[C@H](CCC(N)=O)NC(=O)[C@H](CC(N)=O)NC(=O)[C@H](CCC(N)=O)NC(=O)[C@H](CO)NC(=O)[C@H](CCCCN)NC(=O)[C@H](CCCCN)NC(=O)[C@H](CC(C)C)NC(=O)[C@@H](NC(=O)[C@H](CCC(=O)O)NC(=O)[C@H](CCC(=O)O)NC(=O)[C@@H](NC(=O)[C@H](CCCCN)NC(=O)[C@H](CCCCN)NC(=O)[C@@H](NC(=O)[C@H](Cc1ccc(O)cc1)NC(=O)[C@H](CCC(=O)O)NC(=O)[C@H](CCC(=O)O)NC(=O)[C@@H](NC(=O)[C@H](CCCCN)NC(=O)[C@H](CCCCN)NC(=O)[C@H](CCC(=O)O)NC(=O)[C@H](Cc1c[nH]c2ccccc12)NC(=O)[C@H](CCC(=O)O)NC(=O)[C@H](CCC(=O)O)NC(=O)[C@H](Cc1c[nH]c2ccccc12)NC(=O)[C@@H](NC(=O)[C@H](CCSC)NC(=O)[C@@H](N)CCC(=O)O)[C@@H](C)O)[C@@H](C)CC)[C@@H](C)CC)[C@@H](C)CC)[C@@H](C)CC)[C@@H](C)CC)C(=O)O [YIK-C16] (H-EMTWEEWEKKIEEYIKKIEEILKKSQNQQIDLGSG[PEG4]K(Palmitoyl)-OH; N-terminus and C-terminus assumed),non-cytotoxic concentration (8 μM) relative to IC50 for inhibiting HIV-1IIIB infection,[1]; 8 μM versus IC50 against HIV-1IIIB,about 105 fold
same,in vitro cytotoxicity to MT-2 cells,[1]; [13],none of these peptides exhibited in vitro cytotoxicity
same,fold more potent than HP23-E6-IDL for inhibiting infection by HIV-1 T20-resistant strains,[2],about 12 fold
same,maximum inhibitory activity of serum (fold of IC50; highest dilution-fold of serum causing 50% inhibition),[3],about 4500 fold
same,serum inhibitory activity maintained for 15 h post-injection (fold of IC50),[3],> 275 fold
same,time of maximum serum inhibitory activity post-injection,[3],about 3 h
same,"fold more effective than HP23-E6-IDL against infection by HIV-1 mutants resistant to T20, T2635 and HP23",[4],about 16 fold
same,potency relative to YIK and HP23-E6-IDL in inhibiting HIV-1-mediated cell-cell fusion,[5],about two-fold more potent
same,"inhibition of HIV-1IIIB infection, virus preincubated with peptide, washed",[6],could inhibit HIV-1IIIB infection when the unbound peptide was washed away
same,fold more effective than HP23-E6-IDL against HIV-1Bal infection,[7],13.3 fold and ~13 fold
same,fold more effective than YIK against HIV-1Bal infection,[7],10.5 fold
same,non-cytotoxic concentration (8 μM) relative to IC50 for inhibiting HIV-1Bal infection,[8]; 8 μM versus IC50 against HIV-1Bal,~131 fold
same,in vitro cytotoxicity to M7 cells,[8]; [13],none of these peptides exhibited in vitro cytotoxicity
same,fold more potent than HP23-E6-IDL for inhibiting infection by HIV-1 HP23-resistant strains,[9],~26 fold
same,AUC0-15h,[10]; [14],14900 ± 3800 ng·h/mL
same,AUCINF_obs,[10]; [14],15000 ± 3700 ng·h/mL
same,Cl_F_obs/Cl_obs,[10]; [14],5.773 ± 1.27 mL/min/kg
same,Cmax,[10]; [14],2200 ± 100 ng/mL
same,MRTlast,[10]; [14],9.5 ± 5.1 h
same,Tmax,[10]; [14],4.0 ± 1.7 h
same,Vz_F_obs/Vz_obs,[10]; [14],2.7388 ± 0.7407 L/kg
same,t½,[10]; [14],5.9 ± 3.2 h
same,fold longer serum half-life than HP23-E6-IDL,"[10]; mice, i.p.",~5.9 fold
same,fold more potent than HP23-E6-IDL for inhibiting infection by HIV-1 T2635-resistant strains,[11],about 12 fold
same,fold more potent than YIK against HIV-1IIIB infection,[12],3.6 fold
